Key:
MDA-MB-231 [1] = conditions: incubation time: 72 h
Experimental: (§1)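 MDA-MB-231 breast cancer cells were transfected with siBRCA1 or non-targeting siControl, then seeded 24 h later at 4000 cells/well in 384-well plates holding 198 drugs at 5 concentrations. Viability was read by CellTiter-Blue after 72 h at 37 °C. Dose-response curves were fitted in Dotmatics to give IC50 and a drug sensitivity score (DSS: area under the curve relative to the area between the 10% threshold and 100% inhibition, normalised by the log of the top response). The dose range is not stated. IC50 values of 8333.3 or 4166.7 nM mark no response (top dose), and 0.8333 nM is the lower limit.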

MDA-MB-231 [2] = assay: drug sensitivity score (DSS); higher = more sensitive; extreme values may be limits of the assay; conditions: incubation time: 72 h
Experimental: as §1

[3] = siRNA: siControl (non-targeting)

Row | SMILES | IC50 of cell viability (MDA-MB-231 [1]; siRNA: siBRCA1) [nM] | IC50 of cell viability (MDA-MB-231 [1]; [3]) [nM] | drug sensitivity score (MDA-MB-231 [2]; siRNA: siBRCA1) | drug sensitivity score (MDA-MB-231 [2]; [3])
1 | O=C(CCBr)N1CCN(C(=O)CCBr)CC1 [Pipobroman] | > 4170 | > 4170 | 1.55 | 0
2 | COc1ccc(-c2ccc3c(N4CCOC[C@@H]4C)nc(N4CCOC[C@@H]4C)nc3n2)cc1CO [AZD8055] | 45.9 | 88.8 | 19.1 | 18.2
3 | CN(N=O)C(=O)N[C@@H](C=O)[C@@H](O)[C@H](O)[C@H](O)CO [Streptozocin] | > 4170 | > 4170 | 0 | 0
4 | O=c1[nH]cc(F)c(=O)[nH]1 [Fluorouracil] | > 4170 | > 4170 | 1.13 | 0.956
5 | c1ccc([C@H]2CN3CCSC3=N2)cc1 [Levamisole] | 3160 | > 4170 | 0.142 | 0
6 | CN(C)/N=N/c1[nH]cnc1C(N)=O [Dacarbazine] | 1330 | 96.4 | 2.68 | 7.63
7 | Cc1c(N)nc([C@H](CC(N)=O)NC[C@H](N)C(N)=O)nc1C(=O)N[C@H](C(=O)N[C@H](C)[C@@H](O)[C@H](C)C(=O)N[C@H](C(=O)NCCc1nc(-c2nc(C(=O)NCCC[S+](C)C)cs2)cs1)[C@@H](C)O)[C@@H](OC1OC(CO)C(O)C(O)C1OC1OC(CO)C(O)C(OC(N)=O)C1O)c1cnc[nH]1 (stereo not given in full) [Bleomycin] | > 4170 | 125 | 0 | 3.28
8 | O=C1CCC(N2C(=O)c3ccccc3C2=O)C(=O)N1 (stereo not given) [Thalidomide] | > 4170 | > 4170 | 0 | 0
9 | COc1cc(F)c(F)c(Nc2ccc(I)cc2F)c1NS(=O)(=O)C1(C[C@H](O)CO)CC1 [RDEA119 (Refametinib)] | 92.2 | 146 | 14.9 | 12.3
10 | S=c1[nH]cnc2nc[nH]c12 [Mercaptopurine] | > 4170 | 991 | 0 | 4.58
11 | CC[C@]1(O)C[C@@H]2CN(CCc3c([nH]c4ccccc34)[C@@](C(=O)OC)(c3cc4c(cc3OC)N(C)[C@H]3[C@@](O)(C(=O)OC)[C@H](OC(C)=O)[C@]5(CC)C=CCN6CC[C@]43[C@@H]65)C2)C1 [Vinblastine] | 5.72 | 5.65 | 31.4 | 30.9
12 | O=C1c2c(O)ccc(O)c2C(=O)c2c(NCCNCCO)ccc(NCCNCCO)c21 [Mitoxantrone] | 143 | 134 | 19.5 | 19.9
13 | C[C@]12C=CC(=O)C=C1CC[C@@H]1[C@@H]2[C@@H](O)C[C@@]2(C)[C@H]1CC[C@]2(O)C(=O)CO [Prednisolone] | > 4170 | > 4170 | 0 | 0
14 | C/C(=C\c1csc(C)n1)[C@@H]1C[C@@H]2O[C@]2(C)CCC[C@H](C)[C@H](O)[C@@H](C)C(=O)C(C)(C)[C@@H](O)CC(=O)N1 [Ixabepilone] | 249 | 251 | 14.8 | 16.2
15 | CC1(C)CNc2cc(NC(=O)c3cccnc3NCc3ccncc3)ccc21 [Motesanib] | > 4170 | > 4170 | 0 | 0
16 | C[C@@H]1C[C@H]2[C@@H]3CCC4=CC(=O)C=C[C@]4(C)[C@@]3(F)[C@@H](O)C[C@]2(C)[C@@]1(O)C(=O)CO [Dexamethasone] | > 4170 | > 4170 | 0 | 0
17 | C1CN1c1nc(N2CC2)nc(N2CC2)n1 [Triethylenemelamine] | > 4170 | > 4170 | 0 | 0
18 | CC(=O)Nc1cccc(-n2c(=O)n(C3CC3)c(=O)c3c(Nc4ccc(I)cc4F)n(C)c(=O)c(C)c32)c1 | 2.46 | 2.21 | 22 | 22.5
19 | Cn1cncc1[C@@](N)(c1ccc(Cl)cc1)c1ccc2c(c1)c(-c1cccc(Cl)c1)cc(=O)n2C [Tipifarnib] | 79.4 | 30.5 | 12.8 | 14.1
20 | NCC(=O)CCC(=O)O [Aminolevulinic acid] | > 4170 | > 4170 | 0 | 0
